Measurements published in patent publication EP1077981B1, “NOVEL CEPHALOSPORIN COMPOUNDS, PROCESSES FOR PREPARATION THEREOF AND ANTIMICROBIAL COMPOSITIONS CONTAINING THE SAME” (LG CHEMICAL LIMITED, priority 1998, dated 1999).
Converted amounts (≈) assume the structure as drawn. Like-named read-outs stand apart in the source and are kept apart here.

Assays:
[1] = Pharmacokinetic experiment (blood concentration by HPLC); type: in vivo, mice; conditions: mice, 20mg/kg; for AUC / half-life: male, mouse, blood
Method: Test example 2: Pharmacokinetic experiment
Male mice, each of which has a body weight of […] were used in the present pharmacokinetic experiment. Test compounds were formulated into 1% of solution and then, the solution was administered by oral route and by injection with a dose of 20mg/kg, respectively. At the fixed interval of time after administration, blood was gathered from the mice. Concentrations of test compounds in blood were measured by HPLC quantitative analysis and based on the results, pharmacokinetic parameters were calculated.

S. aureus = test: MIC against standard strains (agar dilution); type: cell-based; conditions: Staphylococcus aureus, Mueller-Hinton agar, 10^7 cfu/mℓ, 20 hours at 37°C
Method: (§1) Test example 1: Measurement of Minimum Inhibitory Concentration (MIC)
(§2) Specifically, test compounds were diluted by 2-fold dilution method and dispersed in Mueller-Hinton agar medium and then, 2µℓ of test strains were inoculated at a concentration of 10^7 cfu(colony forming unit)/mℓ on the medium and incubated for 20 hours at 37°C.

S. pneumoniae = test: MIC against standard strains (agar dilution); type: cell-based; conditions: Streptococcus pneumoniae, Mueller-Hinton agar, 10^7 cfu/mℓ, 20 hours at 37°C
Method: as §1, §2

E. coli = test: MIC against standard strains (agar dilution); type: cell-based; conditions: Escherichia coli, Mueller-Hinton agar, 10^7 cfu/mℓ, 20 hours at 37°C
Method: as §1, §2

H. influenzae = test: MIC against standard strains (agar dilution); type: cell-based; conditions: Haemophilus influenzae
Method: as §1, §2

P. vulgaris = test: MIC against standard strains (agar dilution); type: cell-based; conditions: Proteus vulgaris, Mueller-Hinton agar, 10^7 cfu/mℓ, 20 hours at 37°C
Method: as §1, §2

| Compound | AUC ([1]; intravenous, Injection) [ng·h/mL] | half-life ([1]; intravenous, Injection) [h] | AUC ([1]; Oral administration) [ng·h/mL] | half-life ([1]; Oral administration) [h] | half-life ([1]; intravenous injection) [h] | maximum conc. ([1]; Oral administration) [µg/mL] | MIC (S. aureus) [µg/mL] | MIC (S. pneumoniae) [µg/mL] | MIC (E. coli) [µg/mL] | MIC (H. influenzae; H. influenzae, Mueller-Hinton agar, 10^7 cfu/mℓ, 20 hours at 37°C, read-out: MIC) [µg/mL] | MIC (P. vulgaris) [µg/mL] | MIC (H. influenzae; 20 h) [µg/mL] |
| --- | --- | --- | --- | --- | --- | --- | --- | --- | --- | --- | --- | --- |
| C=CC1=C(C(=O)O)N2C(=O)[C@@H](NC(=O)/C(=N\O)c3csc(N)n3)[C@H]2SC1 [Cefdinir, reference compound] | 50000 | 0.35 | 6380 | 1.23 | 0.35 | 2.9 | 0.031 (≈ 0.0784 µM) | 4 (≈ 10.1 µM) | 0.016 (≈ 0.0405 µM) | 0.25 (≈ 0.632 µM) | 0.031 (≈ 0.0784 µM) | – |
| CO/N=C(\C(=O)NC1C(=O)N2C(C(=O)O)=C(SCSc3nccc(N)n3)CSC12)c1csc(N)n1 (stereo not shown) [Compound No. 2, 7-[(Z)-2-(2-amino-thiazol-4-yl)-2-methoxyimino-acetylamino]-8-oxo-3-(4-amino-pyrimidin-2-ylsulfanylmethylsulfanyl)-5-t hia-1-aza-bicyclo[4,2,0]oct-2-ene-2-carboxylic acid] | – | – | – | – | – | – | 0.5 (≈ 0.901 µM) | 0.25 (≈ 0.451 µM) | 0.063 (≈ 0.114 µM) | – | 0.031 (≈ 0.0559 µM) | 0.008 (≈ 0.0144 µM) |
| CO/N=C(\C(=O)NC1C(=O)N2C(C(=O)O)=C(SCSc3ncccn3)CSC12)c1csc(N)n1 (stereo not shown) [compound 1, 7-[(Z)-2-(2-amino-thiazol-4-yl)-2-methoxyimino-acetylamino]-8-oxo-3-(pyrimidin-2-ylsulfanylmethylsulfanyl)-5-thia-1-aza-bicyclo[4,2,0]oct-2-ene-2-carboxylic acid] | – | – | – | – | – | – | 0.5 (≈ 0.927 µM) | 0.5 (≈ 0.927 µM) | 0.13 (≈ 0.241 µM) | – | 0.063 (≈ 0.117 µM) | 0.008 (≈ 0.0148 µM) |
| CO/N=C(\C(=O)NC1C(=O)N2C(C(=O)O)=C(SCSc3nc(N)cc(N)n3)CSC12)c1csc(N)n1 (stereo not shown) [compound 3, 7-[(Z)-2-(2-amino-thiazol-4-yl)-2-methoxyimino-acetylamino]-3-(4,6-diamino-pyrimidin-2-ylsulfanylmethylsulfanyl)-8-oxo-5-thia-1-aza-bicyclo[4,2,0]oct-2-ene-2-carboxylic acid] | – | – | – | – | – | – | 0.5 (≈ 0.878 µM) | 0.25 (≈ 0.439 µM) | 0.063 (≈ 0.111 µM) | – | 0.016 (≈ 0.0281 µM) | 0.016 (≈ 0.0281 µM) |
| CO/N=C(\C(=O)NC1C(=O)N2C(C(=O)O)=C(SCSc3cc(N)nc(N)n3)CSC12)c1csc(N)n1 (stereo not shown) [compound 4, 7-[(Z)-2-(2-amino-thiazol-4-yl)-2-methoxyimino-acetylamino]-3-(2,6-diamino-pyrimidin-4-ylsulfanylmethylsulfanyl)-8-oxo-5-thia-1-aza-bicyclo[4,2,0]oct-2-ene-2-carboxylic acid] | – | – | – | – | – | – | 0.25 (≈ 0.439 µM) | 0.13 (≈ 0.228 µM) | 0.063 (≈ 0.111 µM) | – | 0.016 (≈ 0.0281 µM) | 0.008 (≈ 0.014 µM) |
| Nc1cc(N)nc(SCSC2=C(C(=O)O)N3C(=O)C(NC(=O)/C(=N\O)c4csc(N)n4)C3SC2)n1 (stereo not shown) [compound 5, 7-[(Z)-2-(2-amino-thiazol-4-yl)-2-hydroxyimino-acetylamino]-3-(4,6-diamino-pyrimidin-2-ylsulfanylmethylsulfanyl)-8-oxo-5-thia-1-aza-bicyclo[4,2,0]oct-2-ene-2-carboxylic acid] | – | – | – | – | – | – | 0.13 (≈ 0.234 µM) | 1 (≈ 1.8 µM) | 0.063 (≈ 0.113 µM) | – | 0.031 (≈ 0.0558 µM) | 0.25 (≈ 0.45 µM) |
| Nc1cc(SCSC2=C(C(=O)O)N3C(=O)C(NC(=O)/C(=N\O)c4csc(N)n4)C3SC2)nc(N)n1 (stereo not shown) [compound 6, 7-[(Z)-2-(2-amino-thiazol-4-yl)-2-hydroxyimino-acetylamino]-3-(2,6-diamino-pyrimidin-4-ylsulfanylmethylsulfanyl)-8-oxo-5-thia-1-aza-bicyclo[4,2,0]oct-2-ene-2-carboxylic acid] | – | – | – | – | – | – | 0.13 (≈ 0.234 µM) | 0.5 (≈ 0.9 µM) | 0.031 (≈ 0.0558 µM) | – | 0.031 (≈ 0.0558 µM) | 0.5 (≈ 0.9 µM) |
| Nc1cc(SCSC2=C(C(=O)O)N3C(=O)C(NC(=O)/C(=N\O)c4nc(N)sc4Cl)C3SC2)nc(N)n1 (stereo not shown) [compound 7, 7-[(Z)-2-(2-amino-5-chloro-thiazol-4-yl)-2-hydroxyimino-acetylamino]-3-(2,6-diamino-pyrimidin-4-ylsulfanylmethylsulfanyl)-8-oxo-5-thia-1-aza-bicyclo[4,2,0]oct-2-ene-2-carboxylic acid] | 107000 | 2.32 | 59900 | 2.8 | – | 13.8 | 0.13 (≈ 0.22 µM) | 0.25 (≈ 0.424 µM) | 0.25 (≈ 0.424 µM) | – | 0.25 (≈ 0.424 µM) | 0.13 (≈ 0.22 µM) |
| CO/N=C(\C(=O)NC1C(=O)N2C(C(=O)O)=C(SCSc3cc(N)nc(N)n3)CSC12)c1nc(N)sc1Cl (stereo not shown) [compound 8, 7-[(Z)-2-(2-amino-5-chloro-thiazol-4-yl)-2-methoxyimino-acetylamino]-3-(2,6-diamino-pyrimidin-4-ylsulfanylmethylsulfanyl)-8-oxo-5-thia-1-aza-bicyclo[4,2,0]oct-2-ene-2-carboxylic acid] | – | – | – | – | – | – | 0.25 (≈ 0.414 µM) | 0.13 (≈ 0.215 µM) | 0.25 (≈ 0.414 µM) | – | 0.25 (≈ 0.414 µM) | 0.031 (≈ 0.0513 µM) |
| CO/N=C(\C(=O)NC1C(=O)N2C(C(=O)O)=C(SCc3cnc(N)nc3N)CSC12)c1csc(N)n1 (stereo not shown) [compound 19, 7-[(Z)-2-(2-amino-1,3-thiazol-4-yl)-2-methoxyimino-acetylamino]-3-(2,4-diaminopyrimidin-5-ylmethylsulfanyl)-8-oxo-5-t hia-1-aza-bicyclo[4,2,0]oct-2-ene-2-carboxylic acid] | – | – | 6320 | 1.15 | – | 3.2 | – | – | – | – | – | – |
| CO/N=C(\C(=O)NC1C(=O)N2C(C(=O)O)=C(SCc3cc(N)nc(N)n3)CSC12)c1csc(N)n1 (stereo not shown) [compound 20, 7-[(Z)-2-(2-amino-1,3-thiazol-4-yl)-2-methoxyimino-acetylamino]-3-(2,4-diaminopyrimidin-6-ylmethylsulfanyl)-8-oxo-5-t hia-1-aza-bicyclo[4,2,0]oct-2-ene-2-carboxylic acid] | – | – | – | – | – | – | 2 (≈ 3.72 µM) | 2 (≈ 3.72 µM) | 0.031 (≈ 0.0577 µM) | – | 0.016 (≈ 0.0298 µM) | 0.031 (≈ 0.0577 µM) |
